The values below are quoted from earlier work in patent US7740874B2, “Method of making a lanolin free absorption base” (Quintessa Corporation, priority 2002, dated 2010).

For the series the following is noted: hydrophilic-lipophilic balance.

Take methyl glucose dioleate [emulsifier]: the HLB is recorded as 5.
